Measured values published in patent US9890153B2, “Substituted 1H-pyrrolo [2, 3-b] pyridine and 1H-pyrazolo [3, 4-b] pyridine derivatives as salt inducible kinase 2 (SIK2) inhibitors” (Arrien Pharmaceuticals LLC, priority 2012, dated 2018).

These molecules were tested against SIK2 (QIK) (SEQ ID NO: 11) (Homo sapiens, UniProt Q9H0K1) (assay: SIK2 kinase assay (radiometric, 10 μM ATP)). Conditions: compounds purchased from vendor library, read-out: SIK2 IC50.
SIK2 (QIK) (SEQ ID NO: 11), sequence (Q9H0K1 whole entry): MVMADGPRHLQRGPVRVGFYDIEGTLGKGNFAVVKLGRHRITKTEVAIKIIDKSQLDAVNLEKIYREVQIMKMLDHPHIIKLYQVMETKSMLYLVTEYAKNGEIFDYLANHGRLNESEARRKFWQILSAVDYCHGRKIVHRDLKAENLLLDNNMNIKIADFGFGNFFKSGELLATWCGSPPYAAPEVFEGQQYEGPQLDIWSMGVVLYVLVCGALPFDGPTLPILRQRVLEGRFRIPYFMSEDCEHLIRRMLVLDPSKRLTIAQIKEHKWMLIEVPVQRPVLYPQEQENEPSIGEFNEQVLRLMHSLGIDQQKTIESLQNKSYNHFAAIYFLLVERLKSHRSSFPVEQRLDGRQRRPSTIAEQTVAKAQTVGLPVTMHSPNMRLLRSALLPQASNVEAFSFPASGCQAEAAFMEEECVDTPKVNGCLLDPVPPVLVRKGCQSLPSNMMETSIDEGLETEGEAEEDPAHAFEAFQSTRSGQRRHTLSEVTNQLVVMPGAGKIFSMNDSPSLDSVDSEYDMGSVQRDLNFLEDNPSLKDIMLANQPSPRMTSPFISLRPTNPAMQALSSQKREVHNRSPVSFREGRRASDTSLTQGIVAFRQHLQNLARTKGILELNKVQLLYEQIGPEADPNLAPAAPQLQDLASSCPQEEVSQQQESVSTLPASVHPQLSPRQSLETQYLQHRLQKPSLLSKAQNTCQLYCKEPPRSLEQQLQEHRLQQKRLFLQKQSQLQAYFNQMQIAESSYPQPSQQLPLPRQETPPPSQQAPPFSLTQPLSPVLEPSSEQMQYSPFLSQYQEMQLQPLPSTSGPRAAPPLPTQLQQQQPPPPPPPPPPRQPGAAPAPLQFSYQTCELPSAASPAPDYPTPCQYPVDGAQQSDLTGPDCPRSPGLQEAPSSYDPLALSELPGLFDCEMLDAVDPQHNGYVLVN
Format: biochemical
Description: Procedure: Enzyme was incubated with substrate peptide in reaction buffer in the presence and absence of test compounds or Staurosporine. All additions were done on ice, followed by the addition of ATP mix. Wells were uniformly mixed using an Eppendorff plate shaker and incubated at 30° C. for 20 min, and stopped by the addition of 5 μL of 3% phosphoric acid. Volume was increased to 100 μL by adding 0.8% phosphoric acid which was then transferred to PC filter mats (Millipore), pre-equilibrated with 70% ethanol and water. Plates were washed thrice with 100 μL 0.8% phosphoric acid and dried for an hour at 60° C.
With `COc1ccc(-c2ccnc3[nH]nc(-c4cccnc4)c23)cc1OC` [compound 1, 4-(3,4-dimethoxyphenyl)-3-(pyridin-3-yl)-1H-pyrazolo[3,4-b]pyridine] the IC50 was > 0.1 µM. With `FC(F)(F)c1cccc(-c2ccnc3[nH]nc(-c4ccc5c(c4)OCO5)c23)c1` [compound 2, 3-(benzo[d][1,3]dioxol-5-yl)-4-(3-(trifluoromethyl)phenyl)-1H-pyrazolo[3,4-b]pyridine] the IC50 was > 1 µM. With `COc1cc(-c2ccnc3[nH]nc(-c4cccc(NS(C)(=O)=O)c4)c23)cc(OC)c1OC` [compound 3, N-(3-(4-(3,4,5-trimethoxyphenyl)-1H-pyrazolo[3,4-b]pyridin-3-yl)phenyl)methanesulfonamide] the IC50 was > 1 µM. With `COc1cc(-c2n[nH]c3nccc(-c4cccc(C(=O)NCCN(C)C)c4)c23)cc(OC)c1OC` [compound 4, N-(2-(dimethylamino)ethyl)-3-(3-(3,4,5-trimethoxyphenyl)-1H-pyrazolo[3,4-b]pyridin-4-yl)benzamide] the IC50 was > 1 µM. For `COc1ccccc1-c1n[nH]c2nccc(-c3ccsc3)c12` [compound 5, 3-(2-methoxyphenyl)-4-(thiophen-3-yl)-1H-pyrazolo[3,4-b]pyridine], the IC50 was < 0.1 µM. In the case of `COc1cc(-c2n[nH]c3nccc(-c4ccc(C(C)C)cc4)c23)cc(OC)c1OC` [compound 6, 4-(4-isopropylphenyl)-3-(3,4,5-trimethoxyphenyl)-1H-pyrazolo[3,4-b]pyridine], the IC50 is reported as > 0.1 µM. With `OCCNC(O)c1cccc(-c2n[nH]c3nccc(-c4cccc(C(F)(F)F)c4)c23)c1` (stereo not drawn) [compound 7, 2-((hydroxy(3-(4-(3-(trifluoromethyl)phenyl)-1H-pyrazolo[3,4-b]pyridin-3-yl)phenyl)methyl)amino)ethanol] the IC50 was > 1 µM. With `COc1cccc(-c2ccnc3[nH]nc(-c4cccc(C(F)(F)F)c4)c23)c1` [compound 8, 4-(3-methoxyphenyl)-3-(3-(trifluoromethyl)phenyl)-1H-pyrazolo[3,4-b]pyridine] the IC50 was > 1 µM. `COc1cc(-c2n[nH]c3nccc(-c4cccc(N(C)C)c4)c23)cc(OC)c1OC` [compound 9, N,N-dimethyl-3-(3-(3,4,5-trimethoxyphenyl)-1H-pyrazolo[3,4-b]pyridin-4-yl)aniline] was tested, and the IC50 was > 1 µM. With `COc1ccccc1-c1n[nH]c2nccc(-c3ccoc3)c12` [compound 10, 4-(furan-3-yl)-3-(2-methoxyphenyl)-1H-pyrazolo[3,4-b]pyridine] the IC50 was < 0.1 µM. In the case of `COc1cc(-c2n[nH]c3nccc(-c4cccc(C(N)=O)c4)c23)cc(OC)c1OC` [compound 11, 3-(3-(3,4,5-trimethoxyphenyl)-1H-pyrazolo[3,4-b]pyridin-4-yl)benzamide], the IC50 is reported as > 1 µM. `CNC(=O)c1cccc(-c2ccnc3[nH]nc(-c4cccc(C(F)(F)F)c4)c23)c1` [compound 12, N-methyl-3-(3-(3-(trifluoromethyl)phenyl)-1H-pyrazolo[3,4-b]pyridin-4-yl)benzamide] was tested, and the IC50 was > 1 µM.

Same assay, conditions: read-out: SIK2 (QIK) (SEQ ID NO: 11) kinase inhibition result
For `Fc1ccc(-c2n[nH]c3nccc(-c4ccsc4)c23)c(F)c1` [Example 2, 3-(2,4-difluorophenyl)-4-(thiophen-3-yl)-1H-pyrazolo[3,4-b]pyridine], the IC50 was > 0.1 µM. `COc1ccc(-c2n[nH]c3nccc(-c4ccsc4)c23)cc1` [Example 7, 3-(4-methoxyphenyl)-4-(thiophen-3-yl)-1H-pyrazolo[3,4-b]pyridine] was tested, and the IC50 was > 0.1 µM. With `c1cc(-c2ccsc2)c2cc[nH]c2n1` [Example 20, 4-(thiophen-3-yl)-1H-pyrrolo[2,3-b]pyridine] the IC50 was > 1 µM. With `Fc1ccccc1-c1c[nH]c2nccc(-c3ccsc3)c12` [Example 22, 3-(2-fluorophenyl)-4-(thiophen-3-yl)-1H-pyrrolo[2,3-b]pyridine] the IC50 was > 1 µM. In the case of `Fc1cccc(-c2c[nH]c3nccc(-c4ccsc4)c23)c1Cl` [Example 23, 3-(2-chloro-3-fluorophenyl)-4-(thiophen-3-yl)-1H-pyrrolo[2,3-b]pyridine], the IC50 is reported as > 0.1 µM. With `COc1cc(Cl)ccc1-c1c[nH]c2nccc(-c3ccsc3)c12` [Example 24, 3-(4-chloro-2-methoxyphenyl)-4-(thiophen-3-yl)-1H-pyrrolo[2,3-b]pyridine] the IC50 was > 0.1 µM. For `COc1ccc(-c2c[nH]c3nccc(-c4ccsc4)c23)cc1` [Example 25, 3-(4-methoxyphenyl)-4-(thiophen-3-yl)-1H-pyrrolo[2,3-b]pyridine], the IC50 was > 1 µM. `CCOc1ccccc1-c1c[nH]c2nccc(-c3ccsc3)c12` [Example 26, 3-(2-ethoxyphenyl)-4-(thiophen-3-yl)-1H-pyrrolo[2,3-b]pyridine] was tested, and the IC50 was > 0.1 µM. With `COc1cc(F)ccc1-c1c[nH]c2nccc(-c3ccsc3)c12` [Example 28, 3-(4-fluoro-2-methoxyphenyl)-4-(thiophen-3-yl)-1H-pyrrolo[2,3-b]pyridine] the IC50 was > 0.1 µM. For `Clc1ccnc2[nH]cc(-c3ccsc3)c12` [Example 29, 4-chloro-3-(thiophen-3-yl)-1H-pyrrolo[2,3-b]pyridine], the IC50 was > 0.1 µM. `COc1ccccc1-c1ccnc2[nH]cc(-c3ccsc3)c12` [Example 30, 4-(2-methoxyphenyl)-3-(thiophen-3-yl)-1H-pyrrolo[2,3-b]pyridine] was tested, and the IC50 was > 1 µM. In the case of `COc1ncccc1-c1c[nH]c2nccc(-c3ccsc3)c12` [Example 36, 3-(2-methoxypyridin-3-yl)-4-(thiophen-3-yl)-1H-pyrrolo[2,3-b]pyridine], the IC50 is reported as > 0.1 µM. With `c1cnc(N2CCOCC2)c(-c2c[nH]c3nccc(-c4ccsc4)c23)c1` [Example 37, 4-(3-(4-(thiophen-3-yl)-1H-pyrrolo[2,3-b]pyridin-3-yl)pyridin-2-yl)morpholine] the IC50 was > 0.1 µM. `Clc1cccc(-c2c[nH]c3nccc(-c4ccsc4)c23)c1` [Example 47, 3-(3-chlorophenyl)-4-(thiophen-3-yl)-1H-pyrrolo[2,3-b]pyridine] was tested, and the IC50 was > 0.1 µM. `COc1ccc(-c2n[nH]c3nccc(-c4ccsc4)c23)c(OC)c1` [Example 87, 3-(2,4-dimethoxyphenyl)-4-(thiophen-3-yl)-1H-pyrazolo[3,4-b]pyridine] was tested, and the IC50 was > 0.1 µM. `CN(C)S(=O)(=O)c1ccccc1-c1c[nH]c2nccc(-c3ccsc3)c12` [Example 94, N,N-dimethyl-2-(4-(thiophen-3-yl)-1H-pyrrolo[2,3-b]pyridin-3-yl)benzenesulfonamide] was tested, and the IC50 was > 1 µM. In the case of `FC(F)(F)Oc1ccccc1-c1c[nH]c2nccc(-c3ccsc3)c12` [Example 99, 4-(thiophen-3-yl)-3-(2-(trifluoromethoxy)phenyl)-1H-pyrrolo[2,3-b]pyridine], the IC50 is reported as > 1 µM. `Fc1cc(OC(F)(F)F)ccc1-c1c[nH]c2nccc(-c3ccsc3)c12` [Example 100, 3-(2-fluoro-4-(trifluoromethoxy)phenyl)-4-(thiophen-3-yl)-1H-pyrrolo[2,3-b]pyridine] was tested, and the IC50 was > 1 µM. In the case of `COc1ccc(-c2c[nH]c3nccc(-c4ccsc4)c23)c(OC)n1` [Example 101, 3-(2,6-dimethoxypyridin-3-yl)-4-(thiophen-3-yl)-1H-pyrrolo[2,3-b]pyridine], the IC50 is reported as > 0.1 µM. `COc1ccccc1-c1c[nH]c2ncc(-c3ccsc3)cc12` [Example 113, 3-(2-methoxyphenyl)-5-(thiophen-3-yl)-1H-pyrrolo[2,3-b]pyridine] was tested, and the IC50 was > 0.1 µM. With `COc1c(F)cccc1-c1c[nH]c2ncc(-c3ccsc3)cc12` [Example 125, 3-(3-fluoro-2-methoxyphenyl)-5-(thiophen-3-yl)-1H-pyrrolo[2,3-b]pyridine] the IC50 was < 0.1 µM. With `COc1c(F)cc(F)cc1-c1c[nH]c2ncc(-c3ccsc3)cc12` [Example 126, 3-(3,5-difluoro-2-methoxyphenyl)-5-(thiophen-3-yl)-1H-pyrrolo[2,3-b]pyridine] the IC50 was > 1 µM. With `N#Cc1ccc(-c2cnc3[nH]cc(-c4cccc(F)c4Cl)c3c2)s1` [Example 132, 5-(3-(2-chloro-3-fluorophenyl)-1H-pyrrolo[2,3-b]pyridin-5-yl)thiophene-2-carbonitrile] the IC50 was > 0.1 µM. `Cc1ncc(-c2cnc3[nH]cc(-c4cccc(F)c4Cl)c3c2)s1` [Example 137, 5-(3-(2-chloro-3-fluorophenyl)-1H-pyrrolo[2,3-b]pyridin-5-yl)-2-methylthiazole] was tested, and the IC50 was > 0.1 µM. In the case of `Clc1ccccc1-c1c[nH]c2ncc(-c3ccsc3)cc12` [Example 139, 3-(2-chlorophenyl)-5-(thiophen-3-yl)-1H-pyrrolo[2,3-b]pyridine], the IC50 is reported as > 1 µM. In the case of `Fc1ccc(-c2c[nH]c3ncc(-c4ccsc4)cc23)cc1Cl` [Example 140, 3-(3-chloro-4-fluorophenyl)-5-(thiophen-3-yl)-1H-pyrrolo[2,3-b]pyridine], the IC50 is reported as > 1 µM.

What follows are molecules tested against T1, SIK1 (SEQ ID NO: 10) (Homo sapiens, UniProt P57059) (assay: Protein kinase assay, SIK1). Conditions: read-out: SIK1 (SEQ ID NO: 10) kinase inhibition result.
T1 construct: Reaction Biology Corporation (assay service, HotSpot panel)
T1 sequence (P57059 whole entry): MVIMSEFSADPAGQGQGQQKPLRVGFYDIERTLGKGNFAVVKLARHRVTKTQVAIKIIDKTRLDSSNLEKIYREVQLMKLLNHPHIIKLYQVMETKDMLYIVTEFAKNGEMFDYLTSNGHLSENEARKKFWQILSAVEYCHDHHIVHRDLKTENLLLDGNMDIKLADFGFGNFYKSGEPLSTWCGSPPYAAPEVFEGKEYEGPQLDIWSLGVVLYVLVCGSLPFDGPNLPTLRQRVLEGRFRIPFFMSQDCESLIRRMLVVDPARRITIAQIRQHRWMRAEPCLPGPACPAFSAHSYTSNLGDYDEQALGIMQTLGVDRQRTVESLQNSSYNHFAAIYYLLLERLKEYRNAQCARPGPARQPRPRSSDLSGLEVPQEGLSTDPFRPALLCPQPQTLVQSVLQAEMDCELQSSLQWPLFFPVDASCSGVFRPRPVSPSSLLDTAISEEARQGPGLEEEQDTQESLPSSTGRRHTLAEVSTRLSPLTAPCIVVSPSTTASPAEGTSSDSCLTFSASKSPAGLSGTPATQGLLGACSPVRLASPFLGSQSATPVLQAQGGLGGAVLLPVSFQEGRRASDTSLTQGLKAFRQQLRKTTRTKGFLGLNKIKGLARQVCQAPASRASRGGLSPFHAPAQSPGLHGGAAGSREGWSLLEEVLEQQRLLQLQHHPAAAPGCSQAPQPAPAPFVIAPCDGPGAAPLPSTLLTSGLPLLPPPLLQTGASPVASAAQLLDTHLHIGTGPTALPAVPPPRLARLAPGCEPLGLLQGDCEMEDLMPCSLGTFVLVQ
Format: biochemical
Description: (§1) Briefly, specific kinase/substrate pairs along with required cofactors were prepared in reaction buffer; 20 mM Hepes (pH 7.5), 10 mMmgCl2, 1 mM EGTA, 0.02% Brij35, 0.02 mg/ml BSA, 0.1 mM Na3VO4, 2 mM DTT, 1% DMSO. Compounds were delivered into the reaction, followed ˜20 min later by addition of a mixture of ATP (Sigma) and 33P ATP (PerkinElmer) to a final concentration of 10 μM. […] IC50 values and curve fits were obtained using Prism (GraphPad Software). Kinome tree representations were prepared using Kinome Mapper (http://www.reactionbiology.com/apps/kinome/mapper/LaunchKinome.htm).
With `Fc1ccc(-c2n[nH]c3nccc(-c4ccsc4)c23)c(F)c1` [Example 2, 3-(2,4-difluorophenyl)-4-(thiophen-3-yl)-1H-pyrazolo[3,4-b]pyridine] the IC50 was > 1 µM. For `COc1ncccc1-c1c[nH]c2nccc(-c3ccsc3)c12` [Example 36, 3-(2-methoxypyridin-3-yl)-4-(thiophen-3-yl)-1H-pyrrolo[2,3-b]pyridine], the IC50 was > 0.1 µM. For `c1cnc(N2CCOCC2)c(-c2c[nH]c3nccc(-c4ccsc4)c23)c1` [Example 37, 4-(3-(4-(thiophen-3-yl)-1H-pyrrolo[2,3-b]pyridin-3-yl)pyridin-2-yl)morpholine], the IC50 was > 0.1 µM. In the case of `COc1ccc(-c2n[nH]c3nccc(-c4ccsc4)c23)c(OC)c1` [Example 87, 3-(2,4-dimethoxyphenyl)-4-(thiophen-3-yl)-1H-pyrazolo[3,4-b]pyridine], the IC50 is reported as > 1 µM. In the case of `COc1c(F)cccc1-c1c[nH]c2ncc(-c3ccsc3)cc12` [Example 125, 3-(3-fluoro-2-methoxyphenyl)-5-(thiophen-3-yl)-1H-pyrrolo[2,3-b]pyridine], the IC50 is reported as > 1 µM. For `COc1c(F)cc(F)cc1-c1c[nH]c2ncc(-c3cnn(C4CCN(S(C)(=O)=O)CC4)c3)cc12` [Example 214, 3-(3,5-difluoro-2-methoxyphenyl)-5-(1-(1-(methylsulfonyl)piperidin-4-yl)-1H-pyrazol-4-yl)-1H-pyrrolo[2,3-b]pyridine], the IC50 was > 1 µM.

What follows are molecules tested against T2, SIK3 (QSK) (SEQ ID NO: 24) (Homo sapiens, UniProt Q9Y2K2) (assay: Protein kinase assay, SIK3). Conditions: read-out: SIK3 (QSK) (SEQ ID NO: 24) kinase inhibition result.
T2 construct: Reaction Biology Corporation (assay service, HotSpot panel)
T2 sequence (Q9Y2K2 whole entry): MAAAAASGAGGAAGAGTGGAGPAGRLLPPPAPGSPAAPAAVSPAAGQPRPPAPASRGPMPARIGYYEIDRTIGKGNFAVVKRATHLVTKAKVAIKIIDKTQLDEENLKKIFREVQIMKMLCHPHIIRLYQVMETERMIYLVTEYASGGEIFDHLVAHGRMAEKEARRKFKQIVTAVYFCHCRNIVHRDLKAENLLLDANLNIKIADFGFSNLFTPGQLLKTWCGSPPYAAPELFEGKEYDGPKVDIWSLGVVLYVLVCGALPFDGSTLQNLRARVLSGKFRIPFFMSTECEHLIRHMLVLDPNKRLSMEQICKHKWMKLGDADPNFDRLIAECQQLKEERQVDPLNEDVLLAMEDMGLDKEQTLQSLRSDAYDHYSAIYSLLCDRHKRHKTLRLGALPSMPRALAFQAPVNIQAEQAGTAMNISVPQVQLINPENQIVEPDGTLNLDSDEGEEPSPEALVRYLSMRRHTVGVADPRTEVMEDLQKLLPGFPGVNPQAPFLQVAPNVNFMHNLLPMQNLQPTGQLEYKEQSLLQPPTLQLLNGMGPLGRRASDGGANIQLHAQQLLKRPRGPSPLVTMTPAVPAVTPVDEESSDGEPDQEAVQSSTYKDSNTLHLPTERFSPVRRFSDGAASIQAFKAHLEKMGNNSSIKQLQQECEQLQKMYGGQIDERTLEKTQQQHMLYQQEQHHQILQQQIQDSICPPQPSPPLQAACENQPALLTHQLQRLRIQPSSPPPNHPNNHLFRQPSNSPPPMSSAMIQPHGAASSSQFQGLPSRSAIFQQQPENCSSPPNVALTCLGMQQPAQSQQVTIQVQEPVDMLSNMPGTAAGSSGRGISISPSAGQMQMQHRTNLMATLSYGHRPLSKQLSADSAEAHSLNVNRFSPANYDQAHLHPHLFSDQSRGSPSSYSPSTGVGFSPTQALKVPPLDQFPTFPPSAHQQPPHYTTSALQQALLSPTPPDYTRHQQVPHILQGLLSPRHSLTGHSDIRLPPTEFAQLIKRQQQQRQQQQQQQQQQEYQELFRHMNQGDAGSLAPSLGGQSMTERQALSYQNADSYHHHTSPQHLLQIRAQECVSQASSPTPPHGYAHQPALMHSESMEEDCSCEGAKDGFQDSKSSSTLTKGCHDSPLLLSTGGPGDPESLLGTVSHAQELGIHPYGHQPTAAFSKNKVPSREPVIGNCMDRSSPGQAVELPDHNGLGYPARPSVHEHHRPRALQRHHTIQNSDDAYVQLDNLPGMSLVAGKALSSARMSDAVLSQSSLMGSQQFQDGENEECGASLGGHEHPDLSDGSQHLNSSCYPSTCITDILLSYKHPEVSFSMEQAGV
Format: biochemical
Description: as §1
For `Fc1ccc(-c2n[nH]c3nccc(-c4ccsc4)c23)c(F)c1` [Example 2, 3-(2,4-difluorophenyl)-4-(thiophen-3-yl)-1H-pyrazolo[3,4-b]pyridine], the IC50 was > 1 µM.
